# Experimental data reported in patent US9499811B2, “Ligation enhancement” (New England Biolabs, Inc., priority 2011, dated 2016).
# Entries after “also recorded” stand apart in the source; their conditions may differ.
# Key:
# T4 DNA ligase [1] = target: T1, T4 DNA ligase (Enterobacteria phage T4, UniProt P00970); assay: Recircularization of AhdI-linearized pUC19 and transformation of NEB Turbo cells (FIGS. 1A-C); format: biochemical; design: purchased NEB (New England Biolabs), Ipswich, Mass. #M0202; details: 0, 4%, 6% 1,2-PrD, 400 U T4 DNA ligase, 20 min 16 C
# T1 sequence (P00970 1-487): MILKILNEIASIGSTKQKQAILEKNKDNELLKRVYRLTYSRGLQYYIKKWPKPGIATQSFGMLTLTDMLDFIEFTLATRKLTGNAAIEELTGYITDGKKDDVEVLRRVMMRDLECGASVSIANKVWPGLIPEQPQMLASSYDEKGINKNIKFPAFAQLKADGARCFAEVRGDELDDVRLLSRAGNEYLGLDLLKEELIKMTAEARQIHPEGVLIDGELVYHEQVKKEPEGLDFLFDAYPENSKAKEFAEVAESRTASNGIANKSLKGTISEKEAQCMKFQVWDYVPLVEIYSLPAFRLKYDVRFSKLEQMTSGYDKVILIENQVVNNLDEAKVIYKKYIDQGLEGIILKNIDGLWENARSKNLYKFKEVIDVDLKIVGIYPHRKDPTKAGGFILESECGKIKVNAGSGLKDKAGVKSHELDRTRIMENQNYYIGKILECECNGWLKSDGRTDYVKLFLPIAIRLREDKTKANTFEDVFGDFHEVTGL
# Excerpt: FIGS. 1A-C show the results of recircularization through ligation of double-stranded linearized plasmid DNA in the presence of increasing amounts of 1,2-PrD. The ligated DNA is subsequently transformed into competent E. coli cells, followed by plating on agar ampicillin selection plates. The extent of successful transformation is illustrated by the numbers of colonies on the plate.
# Linearization of the pUC19 plasmid was achieved using AhdI to generate single-base overhangs as described in FIG. 3A. Ligation of the cleaved DNA was performed in a 20 μl ligation reaction containing 100 ng of DNA in the presence and absence of 1,2-PrD and 400 U of T4 DNA ligase was incubated for 20 min at 16° C., then heated to 65° C. for 45 min to inactivate the ligase. Transformation of cells with the ligated DNA was performed using chemically competent NEB Turbo™ cells (NEB, Ipswich, Mass., #C2984H) as described in Example 1 using 2 μl of the ligation mix (containing 10 ng DNA) with an outgrowth period of 20 min.
# T4 DNA ligase [2] = target: T1, T4 DNA ligase; format: biochemical; design: purchased NEB (New England Biolabs), Ipswich, Mass. #M0202; details: enhancer at 12%; no addition = 1-fold; single-base overhangs
# Protocol: All were tested side-by-side using two ligation test systems which were: (a) cloning of a 500 bp amplicon made by Taq DNA polymerase into a T-tailed vector; and (b) recircularization of an AhdI-linearized plasmid. Both ligation test systems used DNA with single-base overhangs.
# The reaction mixtures contained DNA at 50-100 ng and 1,2-PrD at different concentrations. 1 μl of regular concentration (NEB, Ipswich, Mass., #M0202; 400 units) or 1 μl of high concentration T4 DNA ligase (NEB, Ipswich, Mass., #M0202; 2000 units) was then added to a final volume of 21 μl in 1×T4 DNA Ligase Buffer (NEB, Ipwich, Mass., #B0202) or 1× Quick Ligase™ Buffer (NEB, Ipswich, Mass., #B2200).
# A standard assay uses 100 ng DNA, 1 μl of T4 DNA ligase, 21 μl 1×T4 DNA ligase buffer and varying amounts of enhancer.
# Ligation reactions were incubated for 10 min at room temperature (25° C.) unless otherwise stated, then placed on ice for 2 min. In some experiments the ligase was heat-killed by incubation at 65° C. for 20 min. The ligation reactions were analyzed by 1% agarose gel electrophoresis to identify DNA species and determine the efficiency of […].
# A volume of 2 μl from each ligation reaction was incubated with 50 μl of chemically competent (NEB, Ipswich, Mass., #C2987I) or electrocompetent (NEB, Ipswich, Mass., #C2989K) DH5 alpha E. coli cells.
# For chemically competent cell transformations, the cell-DNA mixture was incubated on ice for 30 min, heat-shocked at 42° C. for 30 sec, then returned to ice for 5 min. A volume of 950 μl SOC medium (2% vegetable peptone or Tryptone, 0.5% yeast extract, 10 mM NaCl, 2.5 mM KCl, 10 mM MgCl2, 10 mM MgSO4 and 20 mM glucose) was added to the cell-DNA mixture, followed by a one hr 37° C. outgrowth period with agitation. A volume of 25-50 μl of appropriately diluted cells in SOC was spread onto Rich Agar plates (composition per liter: 10 g soy peptone, 5 g yeast extract, 10 g NaCl, 1 g MgCl2-6H2O, 1 g dextrose, 15 grams agar) supplemented with 100 μg/ml ampicillin. Plates were inverted and incubated for 16 hrs at 37° C., followed by quantification of total colony numbers.
compound,measurement,setting,value
"CC(O)CO (centres unmarked) [1,2-PrD, 1,2-propanediol]",Transformation levels (number of colonies),T4 DNA ligase [1],the greater the number of transformants; also recorded: increased transformation levels
same,Recircularization Enhancement,T4 DNA ligase [2],11-fold
